Earlier results, collected in US20080221211A1, “METHOD OF TREATMENT OF NEUROLOGICAL INJURY OR CANCER BY ADMINISTRATION OF DICHLOROACETATE” (priority 2007, published 2008).

Columns and labels:
[1] = system: cytochome oxidase activity in primary neurons
tumors = details: rat model
[2] = in vivo
cancer cell lines = details: restored mitochondrial function and apoptosis
infarct size = details: rat pMCAo model; infusion
[3] = system: infarct size after stroke; details: rat; given within 2.25 hours of a stroke

NC1=N[C@H](O)[C@H]2[C@H]3O[C@]4(O)O[C@@H]([C@@H](O)[C@@]2(N1)[C@@H]4O)[C@]3(O)CO [TTX, tetrodotoxin]
effect on cytochrome oxidase activity [1]: reduces cytochome oxidase activity

O=C(O)C(Cl)Cl [DCA, dichloroacetic acid]
effect on tumors in rats (tumors): shrinking the tumors in rats
reported adverse effect [2]: neuropathy
effect on cancer cells in vitro (cancer cell lines): killing cancer cells in vitro

VEGF
effect on infarct size (infarct size): reduction of infarct size

CC(C)(C)[N+]([O-])=Cc1ccc(S(=O)(=O)[O-])cc1S(=O)(=O)[O-].[Na+].[Na+] [NXY-059]
effect on infarct size [3]: reduces infarct size
